“And” between values parts separate entries of the source, which are not always exact repeats. Equal entries are not always repeated.
Tests used:
[1] = system: individuals diagnosed with DSWPD and having at least one copy of the rs184039278 CRY1 allele; test: Sleep parameters after 20 mg tasimelteon before bedtime, by rs184039278 CRY1 genotype; format: in vivo, human
Description: In a study of genetic variations associated with sleep-wake patterns, Applicant found a significant association between the rs184039278 CRY1 allele and efficacy of treatment with tasimelteon. […] Both groups were treated with 20 mg of tasimelteon before bed.

[2] = system: totally blind patients with Non-24; conditions: cited from earlier work
[3] = individual DSWPD patients, rs184039278 CRY1 G/T, 20 mg tasimelteon prior to bedtime

**Q.** What does the source list for CCC(=O)NC[C@@H]1C[C@H]1c1cccc2c1CCO2 [tasimelteon, Tasimelteon]?
**A.** total sleep time (TST), WT versus MT individuals (FIG. 1) ([1]; WT (no rs184039278 CRY1 allele) compared to MT (at least one copy), both 20 mg tasimelteon before bed): both lower and more variable than for MT individuals; Total Sleep Time In First Two-Thirds Of Night [1, 3]: 308 min and 293.5 min; percentage of total sleep time (sleep efficiency) [1, 3]: 96 and 91; sleep parameters (LPS, sleep efficiency, REM sleep duration, TST, WASO) ([1]; individuals having at least one copy of the rs184039278 CRY1 allele, tasimelteon before bedtime): improvements in one or more sleep parameters; efficacy on circadian timing system and sleep [2]: phase advance the circadian timing system (CTS) and to improve nighttime sleep and decrease daytime sleep
